Measurements taken from patent US4333938A, “Imino derivatives of 5-aminobenzodioxole-1,3 which are useful as medicaments” (Laboratoires Sarget, priority 1979, dated 1982).
Several values for one entry are separate records, joined by “and”; a condition that tells them apart may be missing. Equal entries are not always repeated.

Tests used:
[1] = tested on: carageenan-induced edema; assay: inhibition of carrageenan-induced edema; assay type: in vivo, male Wistar rat; conditions: oral
Description: The inflammation is produced in the male Wistar rat by injection of 0.1 ml of a 0.5% suspension of carageenan in physiological serum, into the muscular fascia of the metatarsal region of the hind foot of the animal. The test substance is administered orally at the same time as the carageenan or 30 or 60 min before carageenan. The edema is measured by plethysmometry three hours after the adminstration of the carrageenan.

[2] = oral toxicity (mortality) in the mouse; conditions: in vivo, Swiss mice
Description: The percentages of mortality produced by the compounds of this invention when administered orally to Swiss mice are shown in Table 1. The animals, free from specific pathogenic organisms were housed in an air conditioned room for 24 to 48 hours before the start of the experiment. They were separated into groups of 5 males and 5 females. The materials were administered to animals which had been fasted for 24 hours by means of a gastric tube in suspension in a 6% thickened julep using a volume equivalent to 0.1 ml per 10 g of body weight. […] They remained under observation for two weeks before being sacrificed and autopsied.

[3] = tested on: phenylbenzoquinone (PBQ); assay: analgesic activity, phenylbenzoquinone (PBQ) challenge; assay type: in vivo; conditions: male Swiss mouse, oral; for ED50: method of Lichfield and Wilcoxon
Description: The analgesic activity was determined in the male Swiss mouse using phenylbenzoquinone (PBQ) as the challenging agent (variation of the method of Siegmund et al, Proc. Soc. Exp. Biol. Med. […], 95, 729-31). […] The ED50 was determined by the method of Lichfield and Wilcoxon.

[4] = tested on: carrageenan-induced granulomas; assay: activity on carrageenan-induced granulomas; assay type: in vivo, Male Wistar rats
Description: Male Wistar rats weighing 130 to 150 grams were given a subcutaneous injection in the central part of the skin of the back of 0.5 ml of an aqueous suspension of carrageenan. Two doses of the test substance are administered, one 30 minutes before and the other 6 hours after carrageenan. At the end of 24 hours the rats were sacrificed and the granulomas were removed and weighed before and after drying for 24 hours at 50° C. The difference in weight of the granulomas wet and dry represents the exudate
These AD50 are respectively 175(142-215) and 175(150-205) mg/kg.

[5] = solubility in water; assay type: physicochemical
[6] = tested on: cotton pellet granulomas; assay: inhibition of cotton pellet granulomas; assay type: in vivo, male Sprague-Dawley rats; conditions: oral, daily for 10 days
Description: Two cotton pellets weighing 70 mg were implanted under the back skin of male Sprague-Dawley rats anesthetized with ether. Starting the next day, the compound was administered orally daily for 10 days. The rats were sacrificed and the pellets were removed and weighed before and after drying at 50° C. for 24 hours. The weights used were those obtained after deduction of the weight of the implants. The average of the quantities so calculated was determined for each group and compared to the averages of the control group.

[7] = tested on: stomachs; assay: ulcerogenic activity; assay type: in vivo, female Wistar rat
Description: The ulcerogenic activity was determined in the female Wistar rat using a variation of the procedure described by J. M. Lwoff, J. Pharmacol. 1971, 3, 1, 81-3. The test substance was administered daily for 3 days to the animals maintained on a aqueous diet. The stomachs were removed after 1, 2, and 3 days of treatment and the ulcerations were classified from 0 to 4. The ulceration index is calculated for each group of animals as the product (average of the classes x the percentage of animals afflicted), while distinguishing acute ulcerations from ulcers which were in the process of healing.

[8] = tested on: blood sugar level; assay: antidiabetic activity, blood sugar level in streptozotocin hyperglycemic rats; assay type: in vivo, Female rats; design: key: NS: the difference between the blood sugar level in the treated animals and the control animals is not significant; the difference is significant by Student's test at p≤0.05; conditions: oral
Description: Female rats weighing 180-200 grams were given an intraperitoneal dose on day J0 of 100 mg/kg of streptozotocin in a 0.05 M citrate buffer at a pH of 4.5 calculated as 0.5 ml per 100 g of body weight. On day J2 hyperglycemic animals were selected by determining the blood sugar level by the orthotoludine method in a stream continuously removed from the retroorbital sinus. […] On day J3, without previous fasting, the selected animals received the treatment. This consisted of oral administration of the test compound in a 6% aqueous suspension of gum arabic at a volume of 0.5 ml per 100 g of body weight.
The animals were sacrificed one, two, or four hours after the treatment and their blood sugar levels were determined. Each group of animals was compared to a control group of animals which received only the suspension of gum arabic. Metformin was the substance chosen as the control.
The results are given in Table 8 which indicates the percentage of decrease in the blood sugar level produced by the treatment.

CC(=O)Oc1ccccc1C(=O)O [Aspirin, reference compound]
% inhibiting activity on carrageenan-induced edema ([1]; at To, 75 mg/kg): 40%
% inhibiting activity on carrageenan-induced edema ([1]; at To, 150 mg/kg): 46%
% inhibiting activity on carrageenan-induced edema ([1]; at To, 300 mg/kg): 68%
% inhibiting activity on carrageenan-induced edema ([1]; at To, 450 mg/kg): 64%

C(=Nc1ccc2c(c1)OCO2)c1cccs1 [Example 1, N-thienylidene-5-aminobenzodioxole-1,3]
mortality at 336 h ([2]; 1000 mg/kg): 0%
mortality at 336 h ([2]; 1500 mg/kg): 20%
mortality at 336 h ([2]; 2000 mg/kg): 60%
mortality at 336 h ([2]; 3000 mg/kg): 70%
% analgesic activity ([3]; 100 mg/kg): 34%
% analgesic activity ([3]; 125 mg/kg): 43%
% analgesic activity ([3]; 150 mg/kg): 69%
% analgesic activity ([3]; 200 mg/kg): 73%
ED50 [3]: 130 mg/kg
% inhibiting activity on carrageenan-induced edema ([1]; at To (same time as carrageenan), 25 mg/kg): 19%
% inhibiting activity on carrageenan-induced edema ([1]; at To, 50 mg/kg): 41%
% inhibiting activity on carrageenan-induced edema ([1]; at To, 100 mg/kg): 52%
% inhibiting activity on carrageenan-induced edema ([1]; at To, 200 mg/kg): 56%
% inhibiting activity on carrageenan-induced edema ([1]; at To, 400 mg/kg): 58%
Exudate, % activity ([4]; 200 mg/kg administered twice): 6%
Exudate, % animals 30% protected ([4]; 200 mg/kg administered twice): 12.5%
Weight of dry granuloma, % activity ([4]; 200 mg/kg administered twice): 1%
Weight of dry granuloma, % animals 30% protected ([4]; 200 mg/kg administered twice): 12.5%
Weight of wet granuloma, % activity ([4]; 200 mg/kg administered twice): 6%
Weight of wet granuloma, % animals 30% protected ([4]; 200 mg/kg administered twice): 12.5%
solubility in water [5]: insoluble in water

Cc1ccsc1C=Nc1ccc2c(c1)OCO2 [Example 4, N-(3-methyl-2-thienylidene)-5-aminobenzodioxole-1,3]
mortality at 336 h ([2]; 750 mg/kg): 10%
mortality at 336 h ([2]; 1000 mg/kg): 10%
mortality at 336 h ([2]; 1500 mg/kg): 60%
mortality at 336 h ([2]; 1750 mg/kg): 20%
mortality at 336 h ([2]; 2000 mg/kg): 20%
% analgesic activity ([3]; 75 mg/kg): 21%
% analgesic activity ([3]; 100 mg/kg): 40%
% analgesic activity ([3]; 150 mg/kg): 37%
% analgesic activity ([3]; 200 mg/kg): 62%
% analgesic activity ([3]; 300 mg/kg): 67%
ED50 [3]: 170 mg/kg
% inhibiting activity on carrageenan-induced edema ([1]; at To, 75 mg/kg): 35%
% inhibiting activity on carrageenan-induced edema ([1]; at To, 150 mg/kg): 35%
% inhibiting activity on carrageenan-induced edema ([1]; at To, 300 mg/kg): 68%
Exudate, % activity ([4]; 100 mg/kg administered twice): 21%
Exudate, % animals 30% protected ([4]; 100 mg/kg administered twice): 38%
Weight of dry granuloma, % activity ([4]; 100 mg/kg administered twice): 16%
Weight of dry granuloma, % animals 30% protected ([4]; 100 mg/kg administered twice): 31%
Weight of wet granuloma, % activity ([4]; 100 mg/kg administered twice): 20.5%
Weight of wet granuloma, % animals 30% protected ([4]; 100 mg/kg administered twice): 38%
Exudate, % activity ([4]; 200 mg/kg administered twice): 34.5%
Exudate, % animals 30% protected ([4]; 200 mg/kg administered twice): 71%
Weight of dry granuloma, % activity ([4]; 200 mg/kg administered twice): 31%
Weight of dry granuloma, % animals 30% protected ([4]; 200 mg/kg administered twice): 64%
Weight of wet granuloma, % activity ([4]; 200 mg/kg administered twice): 34%
Weight of wet granuloma, % animals 30% protected ([4]; 200 mg/kg administered twice): 71%
Exudate, % activity ([4]; 300 mg/kg administered twice): 44.5%
Exudate, % animals 30% protected ([4]; 300 mg/kg administered twice): 75%
Weight of dry granuloma, % activity ([4]; 300 mg/kg administered twice): 42.5%
Weight of dry granuloma, % animals 30% protected ([4]; 300 mg/kg administered twice): 67%
Weight of wet granuloma, % activity ([4]; 300 mg/kg administered twice): 44.5%
Weight of wet granuloma, % animals 30% protected ([4]; 300 mg/kg administered twice): 75%
% inhibition with respect to dry pellets ([6]; dose 150): 10%
% inhibition with respect to wet pellets ([6]; dose 150): 13%
% inhibition with respect to dry pellets ([6]; dose 300): 19%
% inhibition with respect to wet pellets ([6]; dose 300): 14%
Ulceration Index, acute ([7]; 150 mg/kg daily, Day 1): 0
Ulceration Index, healing ([7]; 150 mg/kg daily, Day 1): 0
Ulceration Index, acute ([7]; 150 mg/kg daily, Day 2): 0
Ulceration Index, healing ([7]; 150 mg/kg daily, Day 2): 8
Ulceration Index, acute ([7]; 150 mg/kg daily, Day 3): 72
Ulceration Index, healing ([7]; 150 mg/kg daily, Day 3): 16
solubility in water [5]: insoluble in water

CN(C)C(=N)N=C(N)N [Metformin, reference compound]
Percentage Decrease in the Blood Sugar ([8]; 200 mg/kg, treatment 1 h before sacrificing): NS
Percentage Decrease in the Blood Sugar ([8]; 200 mg/kg, treatment 2 h before sacrificing): NS
Percentage Decrease in the Blood Sugar ([8]; 200 mg/kg, treatment 4 h before sacrificing): NS
Percentage Decrease in the Blood Sugar ([8]; 400 mg/kg, treatment 1 h before sacrificing): 14%
Percentage Decrease in the Blood Sugar ([8]; 400 mg/kg, treatment 2 h before sacrificing): NS
Percentage Decrease in the Blood Sugar ([8]; 400 mg/kg, treatment 4 h before sacrificing): 15%

O=C(O)c1cccnc1Nc1cccc(C(F)(F)F)c1 [Niflumic Acid, reference compound]
% inhibiting activity on carrageenan-induced edema ([1]; at To, 75 mg/kg): 37%
% inhibiting activity on carrageenan-induced edema ([1]; at To, 100 mg/kg): 27%
% inhibiting activity on carrageenan-induced edema ([1]; at To, 125 mg/kg): 40%
% inhibiting activity on carrageenan-induced edema ([1]; at To, 150 mg/kg): 37% and 59%
Exudate, % activity ([4]; 25 mg/kg administered twice): 42.5%
Exudate, % animals 30% protected ([4]; 25 mg/kg administered twice): 100%
Weight of dry granuloma, % activity ([4]; 25 mg/kg administered twice): 41.5%
Weight of dry granuloma, % animals 30% protected ([4]; 25 mg/kg administered twice): 87%
Weight of wet granuloma, % activity ([4]; 25 mg/kg administered twice): 42.5%
Weight of wet granuloma, % animals 30% protected ([4]; 25 mg/kg administered twice): 100%
% inhibition with respect to dry pellets ([6]; dose 50): 12%
% inhibition with respect to wet pellets ([6]; dose 50): 3%
Ulceration Index, acute ([7]; 100 mg/kg daily, Day 1): 330
Ulceration Index, healing ([7]; 100 mg/kg daily, Day 1): 0
Ulceration Index, acute ([7]; 100 mg/kg daily, Day 2): 1
Ulceration Index, healing ([7]; 100 mg/kg daily, Day 2): 400
Ulceration Index, acute ([7]; 100 mg/kg daily, Day 3): 119
Ulceration Index, healing ([7]; 100 mg/kg daily, Day 3): 378
